Laboratory results from US6579696B1, “Polymyxin B conjugates” (priority 1992, dated 2003).
In brackets after ≈: the same amount, converted by molar mass. Like-named read-outs stand apart in the source and are kept apart here. Bridge positions count the residues as written; N and C are the ends. Square brackets hold non-standard residues; d marks the D form. Peptide text beside a SMILES is read from it. * marks the point of attachment. Fluorescein(5-Mal) = O=C1OC2(c3ccc(O)cc3Oc3cc(O)ccc32)c2ccc(N3C(=O)CC(*)C3=O)cc21; Ileψ(thiazoline)Cys = CC[C@H](C)[C@H](N)C1=N[C@H](C(=O)*)CS1; Succinimide(1-Et,3-yl) = CCN1C(=O)CC(*)C1=O; dOrn = NCCC[C@@H](N)C(=O)O

Tests used:
[1] = tested on: S. aureus; test: MIC testing against S. aureus; format: cell-based, Staph. aureus; conditions: for activity against S. aureus (in words): controls at concentrations used in the derivatization
Method: 1.5 ml fractions were collected. The fractions in the void volume were pooled and sterile filtered. The activity of the conjugate was determined by standard MIC testing against S. aureus.

[2] = tested on: E. coli 0111:B4
[3] = tested on: Staphylococcus epidermidis; test: MIC and MBC; format: cell-based
[4] = tested on: E. coli H16; format: cell-based; conditions: for BDA: Table 42
[5] = tested on: E. coli H16
[6] = tested on: Salmonella 34576; conditions: Table 43
[7] = tested on: E. coli; test: MIC assays, summary of modified PMB's; conditions: relative to PMB
Method: The MIC assays were performed as follows. Bacteria were grown overnight on TSB (Trypticase Soy Broth) plates at 37 degrees, and bacteria resuspended in sterile PBS to equal a #1 McFarland suspension. The suspension is diluted in TSB to a concentration of 5×10^5 organisms/ml. This diluted sample is the innoculum. Serial 2 fold dilutions of the conjugate to be tested are made in TSB (0.5 ml final volume of each dilution) in polystyrene tubes. 0.5 ml bacterial innoculum was added to each dilution tube. The conjugate concentrations are thus 2× the final concentration to be tested. Control tubes containing TSB alone, antimicrobial agent alone, and innoculum alone are also set. The tubes are vortexed and grown overnight in 37 degree incubator. […] Where two numbers are shown, the second number is the MIC of free PMB determined in the same experiment.

[8] = tested on: E. coli HB101
[9] = biological target: type I pili (Escherichia coli, UniProt P08191)
[10] = tested on: J5 bacteria phagocytosed by J774A.1 mouse macrophage cell line; format: cell-based
[11] = concentration expressed as absorbance at 280 nm
[12] = Table 40, first number of the cell

Chain of type I pili (P08191 22-300): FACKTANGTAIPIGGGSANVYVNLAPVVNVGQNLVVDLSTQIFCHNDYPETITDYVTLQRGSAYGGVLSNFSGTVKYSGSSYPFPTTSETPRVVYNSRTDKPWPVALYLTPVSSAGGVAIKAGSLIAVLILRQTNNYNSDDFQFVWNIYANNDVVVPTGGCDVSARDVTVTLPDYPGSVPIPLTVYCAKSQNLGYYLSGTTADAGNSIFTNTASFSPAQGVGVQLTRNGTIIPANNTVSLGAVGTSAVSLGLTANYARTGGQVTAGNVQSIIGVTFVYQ
Chain of type I pili (P08190 24-167 partner): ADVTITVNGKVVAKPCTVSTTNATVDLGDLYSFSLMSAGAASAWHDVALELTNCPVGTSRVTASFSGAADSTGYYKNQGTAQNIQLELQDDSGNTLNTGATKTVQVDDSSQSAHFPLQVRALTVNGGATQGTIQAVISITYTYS
Chain of type I pili (P08189 23-176 partner limits assumed): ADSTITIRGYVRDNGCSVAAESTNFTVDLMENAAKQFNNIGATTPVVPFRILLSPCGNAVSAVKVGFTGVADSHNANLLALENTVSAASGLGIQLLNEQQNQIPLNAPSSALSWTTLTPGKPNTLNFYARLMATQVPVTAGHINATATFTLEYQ
Chain of type I pili (P04128 24-182 partner): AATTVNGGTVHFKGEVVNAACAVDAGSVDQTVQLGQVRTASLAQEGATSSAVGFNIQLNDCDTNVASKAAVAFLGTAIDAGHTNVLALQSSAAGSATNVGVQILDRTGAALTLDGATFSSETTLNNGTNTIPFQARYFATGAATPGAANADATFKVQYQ

S-hydroxyethylthio maleimidomethyl cyclohexane carboxyl-N-cefadroxil ester
MIC [1, 11]: 1.6 A280

S-(Acetomidomethyl)cysteinyl PMB [PMB-Cys (ACM)]
MIC [2, 12]: 1.2 µg/mL
MIC ([2]; Table 41): 5 µg/mL

NCCO [ethanolamine]
activity against S. aureus (in words) [1]: inactive

OCCS [beta-mercaptoethanol]
activity against S. aureus (in words) [1]: inactive

CC[C@H](C)[C@H](N)C1=N[C@H](C(=O)N[C@@H](CC(C)C)C(=O)N[C@H](CCC(=O)O)C(=O)N[C@H](C(=O)N[C@H]2CCCCNC(=O)[C@H](CC(N)=O)NC(=O)[C@@H](CC(=O)O)NC(=O)[C@H](Cc3cnc[nH]3)NC(=O)[C@@H](Cc3ccccc3)NC(=O)[C@H]([C@@H](C)CC)NC(=O)[C@@H](CCCN)NC2=O)[C@@H](C)CC)CS1 [Bacitracin] ({Ileψ(thiazoline)Cys}-L[dE]IK[dOrn]I[dF]H[dD]N; lactam 4-C)
MIC ([3]; Table 25): 25 µg/mL (≈ 17.6 µM)
MBC ([3]; Table 25, read-out: MBC): 50 µg/mL (≈ 35.1 µM)

CCN1C(=O)CC(SC[C@H](NC(=O)CNC(=O)[C@H](CC(C)C)NC(=O)[C@H](CCCCN)NC(=O)[C@H](CCCCN)NC(=O)[C@H](C)NC(=O)[C@H](CO)NC(=O)[C@H](CCCCN)NC(=O)[C@H](CC(C)C)NC(=O)[C@H](CC(C)C)NC(=O)[C@H](CCCCN)NC(=O)[C@H](CCCCN)NC(=O)[C@H](CC(C)C)NC(=O)[C@H](CC(C)C)NC(=O)[C@H](CCCCN)NC(=O)[C@H](CCCCN)NC(=O)[C@H](Cc2ccc(O)cc2)NC(=O)[C@H](CC(C)C)NC(=O)[C@H](C)N)C(N)=O)C1=O (stereo partly drawn) [C19G-NEM] (H-ALYKKLLKKLLKSAKKLGC(Succinimide(1-Et,3-yl))-NH2; N-terminus assumed)
BDA [4]: 2.5 to 5 µg/mL
MIC ([2]; 0111:B4): 6 µg/mL (≈ 2.64 µM)
MIC [5]: 10 µg/mL (≈ 4.4 µM)
MIC [6]: 6 µg/mL (≈ 2.64 µM)

O=C(ON1C(=O)CC(S(=O)(=O)O)C1=O)c1cccc(N2C(=O)C=CC2=O)c1 (stereo not drawn) [Sulfo-MBS, m-Maleimidobenzoyl-N-hydroxysulfosuccinimide ester]
activity against S. aureus (in words) [1]: inactive

CC1(C)S[C@@H]2[C@H](NC(=O)[C@H](N)c3ccc(O)cc3)C(=O)N2[C@H]1C(=O)O [native amoxicillin, amoxicillin]
MIC [1]: 250 µg/mL (≈ 684 µM)

Cysteinyl-PMB [PMB-Cys]
MIC [2, 12]: 0.7 µg/mL
MIC ([2]; Table 41): 0.8 to 1 µg/mL
antibiotic activity (in words) [7]: Active

CC1=C(C(=O)O)N2C(=O)[C@@H](NC(=O)[C@H](N)c3ccc(O)cc3)[C@H]2SC1 [native cefadroxil, cefadroxil]
MIC [1, 11]: 0.028 A280

Imminothiolated PMB [PMB-Traut's]
loss of anti-bacterial activity relative to PMB [8]: 40-80 fold
MIC ([8]; Table 41): 4 µg/mL

N[C@@H](Cc1ccccc1)C(=O)Nc1ccc(O[C@H]2O[C@H](CO)[C@@H](O)[C@H](O)[C@@H]2O)cc1 [4-(N-phenylalanyl)-aminophenyl-α-D-mannopyranoside]
activity relative to methyl α-mannopyranoside [9]: approximately 1000 fold

O=C(Nc1ccc(O[C@H]2O[C@H](CO)[C@@H](O)[C@H](O)[C@@H]2O)cc1)c1ccccc1 [N-benzoyl derivative, 4-Benzamidophenyl-α-D-mannopyranoside]
activity relative to methyl α-mannopyranoside [9]: 1000 fold

PMB-S-Mercaptosuccinyl-succinimidyl-fluorescein [PMB-SAMSA-Mal-FL]
MIC [2, 12]: 10 µg/mL
MIC ([2]; Table 44): 4 to 20 µg/mL

t-butoxycarbonyl-alanine-polymyxin B [PMB-BOC-Ala]
MIC ([2]; Table 41): 2 µg/mL

S-(Acetomidomethyl)-t-butoxycarbonylcysteinyl PMB [PMB-Boc-Cys (ACM)]
MIC [2, 12]: 6.0 µg/mL
MIC ([2]; Table 41): 5 µg/mL

ala-leu-tyr-lys-lys-leu-leu-lys-lys-leu-leu-lys-ser-ala-lys-lys-leu-gly-cys-amide [C19G]
lower activity than C18G [4]: about 5 fold
BDA [4]: 25 to 50 µg/mL

α-Boc-ε{flourescein) thiocarbamoyl}-lysyl PMB [PMB-Boc-Lys-FL]
MIC [2, 12]: 12.5 µg/mL

Polymyxin B-fluoroscein [PMB-NHS-FL]
loss of anti-bacterial activity relative to PMB [8]: 10-20 fold
MIC ([8]; Table 44): 0.8 to 1 µg/mL

CC(=O)OCC1=C(C(=O)O)N2C(=O)[C@@H](N)[C@H]2SC1 [7-aminocephalosporanic acid]
MIC [1, 11]: 3.7 A280

S-hydroxyethylthio-maleimidobenzoyl-N-aminocephalosporanic acid ester
MIC [1, 11]: 0.86 A280

Monoalanyl PMB [PMB-Ala]
MIC [2, 12]: 0.7 µg/mL
MIC ([2]; Table 41): 0.8 to 2 µg/mL
antibiotic activity (in words) [7]: Active

Lysyl-PMB [PMB-Lys]
MIC [2, 12]: 2.0 µg/mL
MIC ([2]; Table 41): 2 µg/mL
antibiotic activity (in words) [7]: Active

CC(C)C[C@H](NC(=O)[C@H](Cc1ccccc1)NC(=O)[C@H](CCCNC(=N)N)NC(=O)[C@H](CCCCN)NC(=O)[C@H](CCC(N)=O)NC(=O)[C@H](C)NC(=O)[C@H](CCCCN)NC(=O)[C@H](Cc1c[nH]c2ccccc12)NC(=O)[C@H](CCCCN)NC(=O)[C@@H](N)CS)C(=O)N[C@@H](CCCCN)C(=O)O [C90-99, cys-lys-trp-lys-ala-gln-lys-arg-phe-leu-lys, reference compound]
MIC ([2]; 0111:B4): >75 µg/mL
MIC ([8]; HB101): >75 µg/mL

α,ε-di-t-Butoxycarbonyl-lysyl-PMB [α,ε-di-t-butoxycarbonyl lysyl derivative]
antibiotic activity (in words) [7]: significantly less active

S-Acetylmercaptosuccinyl PMB [PMB-SAMSA]
MIC [2, 12]: 3.1 µg/mL
MIC ([2]; Table 41): 3 µg/mL
loss of anti-bacterial activity relative to PMB [8]: 10-30 fold
MIC ([8]; Table 41): 0.5 to 3 µg/mL

CC(C)C[C@H](NC(=O)[C@H](C)N)C(=O)N[C@@H](Cc1ccc(O)cc1)C(=O)N[C@@H](CCCCN)C(=O)N[C@@H](CCCCN)C(=O)N[C@@H](CC(C)C)C(=O)N[C@@H](CC(C)C)C(=O)N[C@@H](CCCCN)C(=O)N[C@@H](CCCCN)C(=O)N[C@@H](CC(C)C)C(=O)N[C@@H](CC(C)C)C(=O)N[C@@H](CCCCN)C(=O)N[C@@H](CO)C(=O)N[C@@H](C)C(=O)N[C@@H](CCCCN)C(=O)N[C@@H](CCCCN)C(=O)N[C@@H](CC(C)C)C(=O)NCC(=O)N[C@@H](CSC1CC(=O)N(c2ccc3c(c2)C(=O)OC32c3ccc(O)cc3Oc3cc(O)ccc32)C1=O)C(N)=O (stereo partly drawn) [C19G-Mal-FL] (H-ALYKKLLKKLLKSAKKLGC(Fluorescein(5-Mal))-NH2; N-terminus assumed)
% Macrophage with phagocytosed bacteria ([10]; Table 61 (repeat assay), 1×10^8 J5 bacteria opsonized, from 100 macrophage examined, conjugates 0.5 ug/ml, anti-avidin 1/400, anti-fluorescein antibody 14 ug/ml): 8%
enhancement of phagocytosis (in words) ([10]; with anti-fluorescein antibody): prevents the C19g-Mal-FL conjugate from enhancing bacterial phagocytosis
MIC [5]: 10 µg/mL (≈ 3.89 µM)

PMB-NHCOCH2SCOCH3 [PMB-SATA]
loss of anti-bacterial activity relative to PMB [8]: about 10 fold
MIC ([8]; Table 41): 0.6 µg/mL
antibiotic activity (in words) [7]: Less Active

CC1(C)S[C@@H]2[C@H](N)C(=O)N2[C@H]1C(=O)O [native aminopenicillanic acid, 6-aminopenicillanic acid]
MIC ([1]; Staphylococcus aureus, read-out: MIC): 250 µg/mL (≈ 1160 µM)

Lysyl S-Succinamidyl (Fluorescein) PMB [PMB-Lys-FL]
MIC [2, 12]: 1 µg/mL
